For series [1], the system named is HeLa cells. The series can be described thus: Cytosolic delivery of green fluorescent protein (confocal microscopy). Type of series: cell-based, human. The settings on record: 25 μM peptide, 10 μM external GFP, overnight, 37 °C. The protocol:
To validate the dextran delivery experiments, we also delivered two separate fluorescent proteins of ∼27 kDa molecular weight to the cytosol of two different cell lines using C16-D-pHD108 (see Figure 7). HeLa cells were incubated overnight with 10 μM green fluorescent protein (GFP), and Chinese Hamster Ovary (CHO) cells were incubated overnight with 3.5 μM yellow fluorescent protein (YFP), with and without 25 μM C16-D-pHD108. Just before imaging, external GFP and YFP were washed off and replaced with TAMRA-dextran (red) or fluorescent protein mTurquoise (blue), respectively, to mark the cell boundaries and extracellular spaces. […] These cells, especially those incubated with the higher 10 μM concentration of GFP, show endosomes with entrapped FP, just as we observed for dextran delivery. […] The apparent nuclear concentration of GFP in cells incubated with GFP but no peptide is indistinguishable from the background. […]
For fluorescent protein or fluorescein-(Fab)2 fragment delivery, HeLa cells were incubated at 37 °C overnight in the presence of GFP with and without C16-D-pHD108 and CHO cells were incubated at 37 °C overnight with YFP in the presence and absence of C16-D-pHD108. […] Quantitation of delivered protein was performed by comparing measured intensities from microscopy images of standard protein solutions of known concentrations.

A short description of series [2]: Particle size by quasielastic / dynamic light scattering. Type of series: physicochemical. The settings on record: QLS/DLS. The protocol:
To test this hypothesis, we next studied the C16-D-pHD108 particle size in solution using quasielastic light scattering (QLS). Samples of C16-D-pHD108 were dissolved in PBS with 138 mM NaCl, PBS with 69 mM NaCl, or PO4 buffer with no added salt. Most measurements were made at 25 μM peptides, but we tested concentrations between 25 and 200 μM peptides. Buffer without peptides gave a very low scattering intensity and no coherent particle peaks. […] Salt concentrations of 0, 69, and 138 mM had only small effects on the nanoparticle size. The median particle size for all samples was ∼120 nm. Particle size distributions for 25 μM C16-D-pHD108 are shown in Figure 8C at several salt concentrations for independently prepared samples. In Figure 8D, the light scattering intensity is shown to be a linear function of peptide concentration, with a Y-intercept at zero.
Dynamic light scattering was performed by using a Malvern Zetasizer Nano ZS90 DLS instrument. After HPLC purification, 10 nmol aliquots of C16-D-pHD108 were dried in silanized Eppendorf tubes. Peptide readily dissolved in PBS buffer and other aqueous buffers and remained stable in solution. For DLS samples, C16-D-pHD108 was dissolved in PBS with 138 mM NaCl, in PBS with 69 mM NaCl (50% of normal), or in a PO4 buffer with no added salt. Most measurements were made at 25 μM peptide, but we tested concentrations between 25 and 200 μM peptide. […]

The nature of series [3]: Tryptophan fluorescence emission (water exposure of Trp19). Type of series: physicochemical. The settings on record: buffer pH 7, no vesicles, 25 μM peptide in PBS. The text has this: Here, in Figure 8, we examine the solution behavior of C16-D-pHD108 using tryptophan fluorescence to measure the water exposure of the tryptophan residue at position 19, Figure 1, and using circular dichroism spectroscopy to measure the secondary structure.
In Figure 8B, we show tryptophan emission spectra for the same three samples.

How the values of series [4] were obtained: This was done by incubating 50 μM peptide under each experimental condition for 60 min, followed by centrifugation at 1400g to remove large aggregates, and by subsequent centrifugation at 11,000g to remove intermediate aggregates. Peptide concentration in solution before and after centrifugation was determined by reverse phase HPLC.
Dried peptides were reconstituted in 50 μL of PBS at pH 7 or at pH 5. The solutions were bath-sonicated briefly and incubated at room temperature for 30 min. Three aliquots of each sample were removed for analysis: one before centrifugation, one after centrifugation for 5 min at 1400g, and one after centrifugation for 10 min at 11,000g. These aliquots were diluted and analyzed by reverse phase HPLC. The integrated peak area of the tryptophan fluorescence peak was determined for each sample.

The subject of series [5] is HeLa cells. In words: Cell binding (peptide remaining in solution by HPLC). The series is classed as cell-based, human. Conditions: HeLa 10^6 cells/ml in PBS pH 7, 20 μM peptide, 30 min, room temperature, supernatant by HPLC. The protocol:
This was done by equilibrating a peptide solution with and without cells for 30 min, followed by measurement of the peptide remaining in solution using reverse phase HPLC. […] The cells were also stained with the DNA staining dye Hoechst 33342. […] Cell/membrane staining by C16-D-pHD108-TAMRA continues to grow rapidly as peptides accumulate on the membranes.
HeLa or RAW 264.7 cells were trypsinized, washed, and counted. Cells were concentrated in a minimal amount of PBS. To measure binding, 25 μL of cells at a known count were transferred to tubes and 25 μL of peptide in PBS was added for a final peptide concentration of 20 μM. Samples were incubated for 30 min with gentle agitation at room temperature. Cells were pelleted in a swinging bucket centrifuge, and 30 μL of supernatant was subjected to HPLC to measure the peptide remaining in the solution. A sample without cells but treated identically was used as a negative control for binding to normalize the recovered peptide.

Regarding `CCCCCCCCCCCCCCCC(=O)NCC(=O)N[C@@H](C(=O)NCC(=O)N[C@H](CCC(=O)O)C(=O)N[C@@H](C(=O)N[C@H](CC(C)C)C(=O)N[C@H](Cc1c[nH]cn1)C(=O)N[C@H](CCC(=O)O)C(=O)N[C@H](CC(C)C)C(=O)N[C@H](C)C(=O)N[C@H](CCC(=O)O)C(=O)NCC(=O)N[C@H](CC(C)C)C(=O)N1CCC[C@@H]1C(=O)N[C@H](CCC(=O)O)C(=O)N[C@H](CC(C)C)C(=O)N[C@H](CCC(N)=O)C(=O)N[C@H](CCC(=O)O)C(=O)N[C@H](Cc1c[nH]c2ccccc12)C(=O)N[C@@H](C(=O)N[C@H](Cc1c[nH]cn1)C(=O)N[C@H](C)C(=O)N[C@H](C)C(=O)N[C@H](CCC(N)=O)C(=O)N[C@H](CCC(N)=O)C(=O)N[C@H](CC(C)C)C(N)=O)[C@H](C)CC)C(C)C)[C@H](C)CC` [C16-D-pHD108], in series [1], the “GFP concentration delivered to cell cytosol, median” value is “about 2 μM” and the “GFP delivered to cytosol, median as percent of the external concentration” value was roughly 20%. Besides, the “stability of particle size distributions” value in series [2] (after sample preparation, pH 7) is recorded as “stable up to a week”. The “median particle size / average diameter” value in series [2] (all samples, buffer pH 7) is reported as “around 120 nm”. The “tryptophan fluorescence emission maximum” value in series [3] is reported as 330 nm. For the same compound, the “solubility after dissolving at pH 7 and decreasing to pH 5” value in series [4] (50 μM, pH 7 then pH 5, centrifugation, reverse phase HPLC) is listed as “became insoluble”. Also, the “solubility at pH 5” value in series [4] (from dried peptide, 50 μM in PBS pH 5, centrifugation 1400g then 11,000g, reverse phase HPLC) was “almost none of the peptides went into solution”. Moreover, the “solubility and stability to centrifugation at pH 7” value in series [4] (from dried peptide, 50 μM in PBS pH 7, bath sonication, 60 min, room temperature, centrifugation 1400g then 11,000g, reverse phase HPLC (Trp fluorescence peak area)) is “remains soluble at pH 7 and is not removed by centrifugation”. For the same compound, in series [4] (pH 7, buffer or PBS), the “solubility in buffer / PBS at pH 7” value was “soluble in PBS and remained in solution at pH 7 for days”. The “binding to cells at pH 7” value in series [5] is “no measurable binding”.
